Measurements as given in patent US8461362B2, “Protein phosphatase 2A-activating agents” (The Ohio State University Research Foundation, priority 2009, dated 2013).

What was measured:
Format in all cases: cell-based
[1] = biological target: T1, PP2A (Homo sapiens, UniProt P67775); assay: PP2A immunoprecipitation phosphatase activity assay in drug-treated LNCaP cells; details: for PP2A phosphatase activity: LNCaP cells, 12 h drug exposure; for PP2A expression (protein level): after drug treatment, Western blot
T1 construct: endogenous in cells; host or cells: LNCaP
Method: PP2A activity in drug-treated cells was determined by using a PP2A Immunoprecipitation Phosphatase Assay Kit (Millipore) according to the manufacturer's instructions. LNCaP cells were exposed to DMSO, VES, or TS-1 at the indicated concentrations in 2.5% FBS supplemented medium for 12 h, and subjected to cell lysis in a phosphate-free lysis buffer containing 20 mmol/L imidazole-HCl, pH 7.0, 2 mM EDTA, 2 mM EGTA, 2 mM AEBSF, 1 mM EDTA, 130 μM bestatin, 14 μM E-64, 1 μM leupeptin, and 0.3 μM aprotinin. The suspension was sonicated (Virtis) at 20% output for 10 sec, followed by centrifugation at 2000×g for 5 min. One-μL aliquots of the supernatants were taken for protein determination by BCA assays, and the remaining supernatants were used for phosphatase activity assays. Aliquots of cell lysates containing 400 μg of proteins were combined with 4 μg of anti-PP2Ac antibody (Millipore), to which was added PP2A assay buffer (20 mmol/L Hepes pH 7.0, 100 mM NaCl) to a final volume of 500 μL followed by 40 μL of Protein A-agarose. Mixtures were incubated at 4° C. for 2 h, and briefly centrifuged. The immunocomplexes were washed and used for the phosphatase activity assay. The amounts of PP2A in the immunocomplexes were determined semi-quantitatively by Western blotting.

[2] = tested on: LNCaP cells; assay: MTT viability assay, LNCaP cells
Method: LNCaP androgen-dependent (p53^+/+) and PC-3 androgen-nonresponsive (p53^−/−) prostate cancer cells were purchased from the American Type Culture Collection (Manassas, Va.), and cultured in RPMI 1640 medium containing 10% heat-inactivated FBS. […] All cell types were cultured at 37° C. in a humidified incubator containing 5% CO2. Cells in log phase growth were harvested by trypsinization for use in the MTT viability assay. LNCaP cells were plated in poly-D-lysine coated culture flasks in order to assist cell adherence to the surface. Prior to drug treatment, cells were plated in a density of 12,000 cells/cm^2 surface area in the respective culture medium for 24-48 h, followed by individual test agents in 2.5% FBS-supplemented RPMI medium.

[3] = tested on: Sp1 binding to AR promoter; assay: ChIP assay of Sp1 binding to AR promoter in LNCaP cells; details: 72 h
Method: Chromatin Immunoprecipitation (ChIP).
After drug treatment, LNCaP cells (2×10^7) in 50 mL of PBS were cross-linked with 1.35 mL of 37% formaldehyde (final concentration 1%) for 15 min at room temperature. Glycine solution (1 mol/L) was added to a final concentration of 125 mmol/L to stop the cross-linking reaction. Cells were harvested and washed twice with 5 mL of PBS, and the cell pellets were lysed in a ChIP lysis buffer containing (50 mM HEPES-KOH at pH 7.5, 140 mM NaCl, 1% Triton X-100, 0.1% sodium deoxycholate, 2 mM AEBSF, 1 mM EDTA, 130 μM bestatin, […], 1 μM leupeptin, and 0.3 μM aprotinin). The suspension was sonicated at 20% output in a Virsonic 300 sonicator with 6 sets of 10-sec pulses (resulting in an average fragment size of 0.8-0.2 kb) and centrifuged for 10 min at 15,000×g at 4° C. One-μL aliquots of the transparent supernatants were taken for determining protein concentrations by BCA assays. Immunoprecipitation was carried out as described above. Aliquots of 1 mg proteins were used for immunoprecipitation using 4 μg of anti-Sp1 antibody followed by protein A/G agarose beads. […]

[4] = tested on: Sp1 mRNA and Sp1 target genes VEGF, Mdm2, DNMT1; assay: mRNA expression of Sp1 and Sp1 downstream target genes in LNCaP cells; details: for Sp1 mRNA expression: high doses
Method: RNA Isolation and Reverse Transcription (RT)-PCR.
LNCaP cells were subject to total RNA isolation by using a Trizol reagent (Invitrogen Corporation, CA). RNA concentrations were determined by measuring absorption at 260 nm in a spectrophotometer. Aliquots of 2 μg of total RNA from each sample were reverse transcribed to cDNAs using the iScript cDNA Synthesis Kit (Bio-Rad) according to the manufacturer's instructions. PCR products were resolved electrophoretically in 1.2% agarose gels and visualized by ethidium bromide staining.

T1 sequence (P67775 whole entry): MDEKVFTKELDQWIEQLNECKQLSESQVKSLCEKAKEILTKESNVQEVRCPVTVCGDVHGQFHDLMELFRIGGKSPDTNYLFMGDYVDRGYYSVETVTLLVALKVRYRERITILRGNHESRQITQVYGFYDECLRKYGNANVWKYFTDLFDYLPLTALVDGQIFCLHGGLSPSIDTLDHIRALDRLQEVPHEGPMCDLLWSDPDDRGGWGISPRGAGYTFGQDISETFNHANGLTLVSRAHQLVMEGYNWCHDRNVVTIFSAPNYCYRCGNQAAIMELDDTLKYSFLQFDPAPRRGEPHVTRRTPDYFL

Row | SMILES | PP2A phosphatase activity [1] | PP2A expression (protein level) [1] | cell viability of LNCaP cells [2] | Sp1 binding to AR promoter [3] | transcription of Sp1 downstream target genes (VEGF, Mdm2, DNMT1) [4] | Sp1 mRNA expression [4]
1 | Cc1c(C)c2c(c(C)c1OC(=O)CCC(=O)O)CCC(C)(CCCC(C)CCCC(C)C)O2 (stereo not drawn) [TS-1, succinic acid mono-[2-(4,8-dimethyl-nonyl)-2,5,7,8-tetramethylchroman-6-yl]ester] | increase PP2A phosphatase activity | without affecting its expression | suppressing the cell viability | diminished the Sp1 binding to AR promoter in a dose-dependent manner | dose-dependent transcriptional repression | remained unaltered
2 | Cc1c(C)c2c(c(C)c1OC(=O)CCC(=O)O)CC[C@@](C)(CCC[C@H](C)CCC[C@H](C)CCCC(C)C)O2 [VES, α-tocopheryl succinate] | increase PP2A phosphatase activity | without affecting its expression | suppressing the cell viability | diminished the Sp1 binding to AR promoter in a dose-dependent manner | dose-dependent transcriptional repression | remained unaltered
